These results are taken from US12281122B1, “PI3K inhibitors” (Cogent Biosciences, Inc., priority 2023, dated 2025).

The test system of experiment [1] is T47D (PI3Kα-H1047R) cell line. Put plainly: HTRF phospho-AKT(S473) cell assay in T47D cells. In kind it is cell-based, human. The conditions noted are these: Homo sapiens; HTRF phospho-AKT(S473), T47D (PI3Kα-H1047R) cells, 2 hours compound incubation. The gist of the method:
(§1)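 Cells plated overnight (T47D in RPMI/10% FBS/0.2 units/mL insulin; SKBR3 in McCoy's 5A/10% FBS), then given 12-point 1:3 compound series (top 5 μM T47D, 10 μM SKBR3; ≤0.5% DMSO) for 2 h at 37° C. SKBR3 stimulated with 70 ng/ml PDGF-BB for final 15 min. Lysate pAKT(S473) by HTRF; IC50 calculated.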

Experiment [2] relates to SKBR3 (PI3Kα-Wild Type) cell line. Put plainly: HTRF phospho-AKT(S473) cell assay in SKBR3 cells. In kind it is cell-based, human. Particulars: Homo sapiens, SK-BR-3; HTRF phospho-AKT(S473), SKBR3 (PI3Kα-Wild Type) cells, 2 hours compound incubation, PDGF-BB stimulated. The method in brief:
as §1

As for `Cc1cc([C@@H](C)Nc2ccc(Cl)nc2C(=O)NS(C)(=O)=O)c2nc(N3C[C@@H]4[C@H](C3)[C@H]4c3nn(C)nc3C)n(C)c(=O)c2c1` [Compound 497, 6-chloro-3-(((R)-1-(2-((1R,5S,6R)-6-(2,5-dimethyl-2H-1,2,3-triazol-4-yl)-3-azabicyclo[3.1.0]hexan-3-yl)-3,6-dimethyl-4-oxo-3,4-dihydroquinazolin-8-yl)ethyl)amino)-N-(methylsulfonyl) picolinamide], the IC50 (as a rule, the midpoint of a concentration-inhibition curve) in experiment [1] was less than 250 nM; in experiment [2], 1000 to 5000 nM.
On to `Cc1cc([C@@H](C)Nc2ccc(Cl)nc2C(=O)NS(C)(=O)=O)c2nc(N3C[C@@H]4[C@H](C3)[C@H]4c3nnn(C)c3C)n(C)c(=O)c2c1` [Compound 498, 6-chloro-3-(((R)-1-(2-((1R,5S,6R)-6-(1,5-dimethyl-1H-1,2,3-triazol-4-yl)-3-azabicyclo[3.1.0]hexan-3-yl)-3,6-dimethyl-4-oxo-3,4-dihydroquinazolin-8-yl)ethyl)amino)-N-(methylsulfonyl) picolinamide], for which the IC50 is less than 250 nM in experiment [1] and 1000 to 5000 nM in experiment [2].
Consider `Cc1cc([C@@H](C)Nc2ccc(Cl)nc2C(=O)NS(C)(=O)=O)c2nc(N3CCC(c4ncc(Cl)cn4)CC3)n(C)c(=O)c2c1` [Compound 499, (R)-6-chloro-3-((1-(2-(4-(5-chloropyrimidin-2-yl)piperidin-1-yl)-3,6-dimethyl-4-oxo-3,4-dihydroquinazolin-8-yl)ethyl)amino)-N-(methylsulfonyl) picolinamide], for which the IC50 in experiment [1] is 250 to 500 nM; in experiment [2], not below 5000 nM.
For `Cc1cc([C@@H](C)Nc2ccc(Cl)nc2C(=O)NS(C)(=O)=O)c2nc(N3CCC(c4ncccn4)CC3)n(C)c(=O)c2c1` [Compound 500, (R)-6-chloro-3-((1-(3,6-dimethyl-4-oxo-2-(4-(pyrimidin-2-yl)piperidin-1-yl)-3,4-dihydroquinazolin-8-yl)ethyl)amino)-N-(methylsulfonyl) picolinamide] the same measures were 250 to 500 nM and 1000 to 5000 nM.
In the case of `Cc1cc([C@@H](C)Nc2ccc(Cl)nc2C(=O)NS(C)(=O)=O)c2nc(N3CCC(c4ccnn4C4CC4)CC3)n(C)c(=O)c2c1` [Compound 501, (R)-6-chloro-3-((1-(2-(4-(1-cyclopropyl-1H-pyrazol-5-yl)piperidin-1-yl)-3,6-dimethyl-4-oxo-3,4-dihydroquinazolin-8-yl)ethyl)amino)-N-(methylsulfonyl) picolinamide], the values for the IC50 in experiment [1] and in experiment [2] were less than 250 nM and 1000 to 5000 nM, respectively.
Taken in the same sequence, the figures for `Cc1cnc([C@H]2[C@@H]3CN(c4nc5c([C@@H](C)Nc6ccc(Cl)nc6C(=O)NS(C)(=O)=O)cc(C)cc5c(=O)n4C)C[C@@H]32)nc1` [Compound 502, 6-chloro-3-(((R)-1-(3,6-dimethyl-2-((1R,5S,6R)-6-(5-methylpyrimidin-2-yl)-3-azabicyclo[3.1.0]hexan-3-yl)-4-oxo-3,4-dihydroquinazolin-8-yl)ethyl)amino)-N-(methylsulfonyl) picolinamide] were 250 to 500 nM and 1000 to 5000 nM.
Taken in the same sequence, the figures for `Cc1cc([C@@H](C)Nc2ccc(Cl)nc2C(=O)NS(C)(=O)=O)c2nc(N3CCC(c4csc(C)n4)CC3)n(C)c(=O)c2c1` [Compound 503, (R)-6-chloro-3-((1-(3,6-dimethyl-2-(4-(2-methylthiazol-4-yl)piperidin-1-yl)-4-oxo-3,4-dihydroquinazolin-8-yl)ethyl)amino)-N-(methylsulfonyl) picolinamide] were less than 250 nM and 1000 to 5000 nM.
Taken in the same sequence, the figures for `Cc1cc([C@@H](C)Nc2ccc(Cl)nc2C(=O)NS(C)(=O)=O)c2nc(N3CCC(c4ncc(C(F)F)cn4)CC3)n(C)c(=O)c2c1` [Compound 504, (R)-6-chloro-3-((1-(2-(4-(5-(difluoromethyl)pyrimidin-2-yl)piperidin-1-yl)-3,6-dimethyl-4-oxo-3,4-dihydroquinazolin-8-yl)ethyl)amino)-N-(methylsulfonyl) picolinamide] were less than 250 nM and 1000 to 5000 nM.
Take `Cc1cc([C@@H](C)Nc2ccc(Cl)nc2C(=O)NS(C)(=O)=O)c2nc(N3CCC(c4nn(C5CC5)cc4F)CC3)n(C)c(=O)c2c1` [Compound 505, (R)-6-chloro-3-((1-(2-(4-(1-cyclopropyl-4-fluoro-1H-pyrazol-3-yl)piperidin-1-yl)-3,6-dimethyl-4-oxo-3,4-dihydroquinazolin-8-yl)ethyl)amino)-N-(methylsulfonyl) picolinamide]: the IC50 in experiment [1] was 250 to 500 nM; in experiment [2], not below 5000 nM.
Taken in the same sequence, the figures for `Cc1cc([C@@H](C)Nc2ccc(Cl)nc2C(=O)NS(C)(=O)=O)c2nc(N3CCC(c4nn(C)nc4C)CC3)n(C)c(=O)c2c1` [Compound 506, (R)-6-chloro-3-((1-(2-(4-(2,5-dimethyl-2H-1,2,3-triazol-4-yl)piperidin-1-yl)-3,6-dimethyl-4-oxo-3,4-dihydroquinazolin-8-yl)ethyl)amino)-N-(methylsulfonyl) picolinamide] were less than 250 nM and 1000 to 5000 nM.
Taken in the same sequence, the figures for `Cc1cc([C@@H](C)Nc2ccc(Cl)nc2C(=O)NS(C)(=O)=O)c2nc(N3C[C@@H]4[C@H](C3)[C@H]4c3ncn(C)n3)n(C)c(=O)c2c1` [Compound 507, 6-chloro-3-(((R)-1-(3,6-dimethyl-2-((1R,5S,6R)-6-(1-methyl-1H-1,2,4-triazol-3-yl)-3-azabicyclo[3.1.0]hexan-3-yl)-4-oxo-3,4-dihydroquinazolin-8-yl)ethyl)amino)-N-(methylsulfonyl) picolinamide] were 250 to 500 nM and 1000 to 5000 nM.
Consider `Cc1cc([C@@H](C)Nc2ccc(Cl)nc2C(=O)NS(C)(=O)=O)c2nc(N3C[C@@H]4[C@H](C3)[C@H]4c3cc4ncccn4n3)n(C)c(=O)c2c1` [Compound 508, 6-chloro-3-(((R)-1-(3,6-dimethyl-4-oxo-2-((1R,5S,6R)-6-(pyrazolo[1,5-a]pyrimidin-2-yl)-3-azabicyclo[3.1.0]hexan-3-yl)-3,4-dihydroquinazolin-8-yl)ethyl)amino)-N-(methylsulfonyl) picolinamide], for which the results for the concentration for half-maximal inhibition (IC50) in experiment [1] and in experiment [2] were less than 250 nM and 1000 to 5000 nM, respectively.
As to `Cc1cc([C@@H](C)Nc2ccc(Cl)nc2C(=O)NS(C)(=O)=O)c2nc(N3CCC(c4ncc(C5CC5)cn4)CC3)n(C)c(=O)c2c1` [Compound 509, (R)-6-chloro-3-((1-(2-(4-(5-cyclopropylpyrimidin-2-yl)piperidin-1-yl)-3,6-dimethyl-4-oxo-3,4-dihydroquinazolin-8-yl)ethyl)amino)-N-(methylsulfonyl) picolinamide], the IC50 in experiment [1] is 250 to 500 nM; in experiment [2], not below 5000 nM.
For `Cc1cc([C@@H](C)Nc2ccc(Cl)nc2C(=O)NS(C)(=O)=O)c2nc(N3C[C@@H]4[C@H](C3)[C@H]4c3cc(C)[nH]n3)n(C)c(=O)c2c1` [Compound 510, 6-chloro-3-(((R)-1-(3,6-dimethyl-2-((1R,5S,6R)-6-(5-methyl-1H-pyrazol-3-yl)-3-azabicyclo[3.1.0]hexan-3-yl)-4-oxo-3,4-dihydroquinazolin-8-yl)ethyl)amino)-N-(methylsulfonyl) picolinamide] the same measures were 250 to 500 nM and 1000 to 5000 nM.
Turning to `Cc1cc([C@@H](C)Nc2ccc(Cl)nc2C(=O)NS(C)(=O)=O)c2nc(N3CCC(c4cc(C5CC5)[nH]n4)CC3)n(C)c(=O)c2c1` [Compound 511, (R)-6-chloro-3-((1-(2-(4-(5-cyclopropyl-1H-pyrazol-3-yl)piperidin-1-yl)-3,6-dimethyl-4-oxo-3,4-dihydroquinazolin-8-yl)ethyl)amino)-N-(methylsulfonyl) picolinamide], the IC50 in experiment [1] is 500 to 1000 nM; in experiment [2] it was not below 5000 nM.
For `Cc1cc([C@@H](C)Nc2ccc(Cl)nc2C(=O)NS(C)(=O)=O)c2nc(N3CC[C@H](Oc4cnc(C)nc4)C3)n(C)c(=O)c2c1` [Compound 512, 6-chloro-3-(((R)-1-(3,6-dimethyl-2-((S)-3-((2-methylpyrimidin-5-yl)oxy)pyrrolidin-1-yl)-4-oxo-3,4-dihydroquinazolin-8-yl)ethyl)amino)-N-(methylsulfonyl) picolinamide] the same measures were 250 to 500 nM and 1000 to 5000 nM.
For `Cc1cc([C@@H](C)Nc2ccc(Cl)nc2C(=O)NS(C)(=O)=O)c2nc(N3CC[C@H](Oc4ccc(F)cn4)C3)n(C)c(=O)c2c1` [Compound 513, 6-chloro-3-(((R)-1-(2-((S)-3-((5-fluoropyridin-2-yl)oxy)pyrrolidin-1-yl)-3,6-dimethyl-4-oxo-3,4-dihydroquinazolin-8-yl)ethyl)amino)-N-(methylsulfonyl) picolinamide] the same measures were 250 to 500 nM and not below 5000 nM.
With `Cc1cc([C@@H](C)Nc2ccc(Cl)nc2C(=O)NS(C)(=O)=O)c2nc(N3Cc4ccc(C)nc4C3)n(C)c(=O)c2c1` [Compound 514, (R)-6-chloro-3-((1-(3,6-dimethyl-2-(2-methyl-5,7-dihydro-6H-pyrrolo[3,4-b]pyridin-6-yl)-4-oxo-3,4-dihydroquinazolin-8-yl)ethyl)amino)-N-(methylsulfonyl) picolinamide], the 50% inhibitory concentration (IC50) was less than 250 nM in experiment [1] and 1000 to 5000 nM in experiment [2].
For `Cc1cnc(C2[C@H]3CN(c4nc5c([C@@H](C)Nc6ccc(Cl)nc6C(=O)NS(C)(=O)=O)cc(C)cc5c(=O)n4C)C[C@@H]23)nc1` (stereo partly drawn) [Compound 515, 6-chloro-3-(((1R)-1-(3,6-dimethyl-2-((1R,5S)-6-(5-methylpyrimidin-2-yl)-3-azabicyclo[3.1.0]hexan-3-yl)-4-oxo-3,4-dihydroquinazolin-8-yl)ethyl)amino)-N-(methylsulfonyl) picolinamide] the same measures were less than 250 nM and 1000 to 5000 nM.
